The record followed here is patent US10005809B2, “Bio-active antioxidants from plant foods for nutraceutical product development” (priority 2013, dated 2018).

Assay [1] in a line: Trolox Equivalents Antioxidant Capacity (TEAC) assay. Type of assay: biochemical. The settings on record: for TEAC (Trolox equivalent antioxidant capacity) ± SEM: compounds 10-1000 μM, ABTS 0.5 mM, 734 nm, 6 min, ratio of slopes, no unit, n = 3; for antioxidant activity (in words): TEAC measurements. The method, then:
Trolox Equivalents Antioxidant Capacity (TEAC) Assay of Compounds (1-11)
Pure compounds and standards (conc. Range 10-1000 μM) were reacted with the fixed concentration of ABTS (0.5 mM) according to the reported method. The decrease in absorbance at 734 nm was recorded 6 min after the addition of pro-formed ABTS radical solution. Standards including Trolox, quercetin, kaempferol and ascorbic acid were used for the comparison of structure-activity relationship with the isolated compounds. The calculation of TEAC values was obtained by plotting the graphs between various concentrations of compounds and percent radical scavenging activity. Slope (m) was then calculated by using the linear regression (y=mx+c) of the plotted curve. Ratio of the value of slope of Trolox with that of isolated compounds was calculated to get TEAC value as follows; TEACCompound=Slope of Trolox/Slope of compound (3)
The TEAC assay was used to assess the power of reduction of total amount of ABTS^•+ radicals formed during the reaction by bioactive metaboilite. The ABTS is intensely colored and when it reacts with antioxidant the color disappeared. […] In present procedure, the ratio of the slope of concentrations of standard and test compound is taken, therefore TEAC is considered as relative value with no unit. Trolox used as standard antioxidant with TEAC value as 1.

The nature of assay [2]: Liver function test (LFT) and lipid profile of serum after oral extract feeding. The assay is classed as in vivo, Male Wistar rats. The note with it: rat serum after two weeks oral feeding; mean ± SEM, n = 6. The text has this: Rats were housed in polycarbonate cages, containing hardwood chip bedding. A standard pallet diet and water was made available ad-libitum. A 12 hr light/dark cycle was maintained throughout tbe study. After 14 days of acclimatization, the rats were randomized, and divided to 6 animals in each group: control, test, and positive control (Trolox). Oral doses of extracts were given after every alternate day and their physical status and weight changes were monitored daily. Control group has received an equal volume of normal saline for the same period of time. The experiment was terminated after two weeks of feeding. Under mild anesthetic conditions, blood was drawn via heart puncture. Blood was collected in clot activator plastic tubes, and allowed to clot for 30-40 minutes. Serum was separated by centrifugation and then stored at -20° C. till antioxidant status and other biochemical analysis were carried out. LPT and Lipid Profile The diagnostic facilities of […]), University of Karachi, were used for the biochemical analysis of serum samples. Lipid profile includes cholesterol, triglycerides, high density lipoproteins (HDL), low density lipoproteins (LDL), and LPT including bilirubin (total and direct), enzymes such as alanine aminotransferase (ALT), alkaline phosphatase (ALP), and gamma […] (GGT), were measured. These assays were performed by fully automated chemistry analyzer (Hitachi 902, Roche Diagnostics, Japan) with standardized kits, calibrators, and controls. Total lipid was estimated manually by calorimetric method of phosphovanilline on a photometer (Clinicon 4010, Boehringer […], Germany).

Where “and” joins values, the source holds several entries; their conditions need not be identical. Equal entries are not always repeated. Structures can show the parent of a compound that is named as a salt.

Regarding `C[C@H]1O[C@@H](Oc2c(-c3ccc(O)c(O)c3)oc3cc(O)cc(O)c3c2=O)[C@@H](O)[C@@H](O)[C@@H]1O` [compound 5, quercetin 3-O-β-D-rhamnoside], the “TEAC (Trolox equivalent antioxidant capacity) ± SEM” value in assay [1] is given as 0.82 ± 0.23.

For `Cc1c(C)c2c(c(C)c1O)CCC(C)(C(=O)O)O2` (centres unmarked) [Trolox, 6-hydroxy-2,5,7,8-tetramethylchroman-2-carboxylic acid], in assay [2], the ALP was 212.54 ± 24.51 U/L, the ALT/SGPT was determined as 45.5 ± 5.49 U/L, the Chol stood at 56.75 ± 2.07 mg/dL and the “Direct Bilirubin” value came to 0.085 ± 0.007 mg/dL. Besides, in assay [2], the GGT is 4.25 ± 0.74 U/L, the HDL-c was found to be 55 ± 1.97 mg/dL, the “Indirect Bilirubin” value came out at 0.43 ± 0.03 mg/dL and the LDL-c was found to be 14.25 ± 0.96 mg/dL. In assay [2], the TAG worked out at 40 ± 1.54 mg/dL, the “Total Bilirubin” value was determined as 0.51 ± 0.02 mg/dL, the “Total Lipid” value is on record as 260 ± 5 mg/dL and the VLDL came out at 8.5 ± 0.25 mg/dL. For the same molecule, the “TEAC (Trolox equivalent antioxidant capacity) ± SEM” value in assay [1] worked out at 1.

On to “kaempferol 3-O-β-D-glucoside [compound 2]”, for which, in assay [1], the “TEAC (Trolox equivalent antioxidant capacity) ± SEM” value amounted to 0.80 ± 0.31.

myricetin 3-O-β-D-xyloside [compound 7]: the “TEAC (Trolox equivalent antioxidant capacity) ± SEM” value in assay [1] turned out to be 0.92 ± 0.35; in assay [1] (listed as myricetin), 0.92±0.35.

With `O=C(O)c1ccc(O)c(O)c1` [compound 9, 3,4-dihydroxybenzoic acid], in assay [1], the “TEAC (Trolox equivalent antioxidant capacity) ± SEM” value was found to be 0.95 ± 0.01.

With `O=C(/C=C/c1ccc(O)cc1)O[C@H]1C(Oc2c(-c3ccc(O)c(O)c3)oc3cc(O)cc(O)c3c2=O)O[C@H](CO)[C@@H](O)[C@@H]1O` (some centres unmarked) [compound 6, quercetin 3-O-(2-p-coumaroylglucoside)], in assay [1], the “TEAC (Trolox equivalent antioxidant capacity) ± SEM” value was 0.36 ± 0.19.

Regarding `O=c1c(O)c(-c2ccc(O)cc2)oc2cc(O)cc(O)c12` [Kaempferol, reference compound], the results for the “TEAC (Trolox equivalent antioxidant capacity) ± SEM” value in assay [1] and in assay [1] (listed as keampferol) were 0.97 ± 0.27 and 0.97, respectively.

In the case of `O=c1c(O[C@@H]2O[C@H](CO)[C@@H](O)[C@H](O)[C@H]2O)c(-c2ccc(O)c(O)c2)oc2cc(O)cc(O)c12` [compound 4, quercetin 3-O-β-D-glucoside], in assay [1], the “TEAC (Trolox equivalent antioxidant capacity) ± SEM” value was 0.82±0.23 and 0.82 ± 0.32.

Regarding 1,5-dimethyl citrate [compound 10], in assay [1], the “antioxidant activity (in words)” value is “moderate to low antioxidant activity” and the “TEAC (Trolox equivalent antioxidant capacity) ± SEM” value is listed as 0.67±0.31.

For the molecule `C[C@H]1O[C@@H](Oc2c(-c3ccc(O)cc3)oc3cc(O)cc(O)c3c2=O)[C@@H](O)[C@@H](O)[C@@H]1O` [compound 3, kaempferol 3-O-β-D-rhamnoside], the “TEAC (Trolox equivalent antioxidant capacity) ± SEM” value in assay [1] is recorded as 0.91 ± 0.21.

`COc1cc(-c2oc3cc(O)cc(O[C@@H]4O[C@H](COC(=O)CC(C)(O)CC(=O)O)[C@@H](O)[C@H](O)[C@H]4O)c3c(=O)c2O)ccc1O` (stereo partly drawn) [compound 1, isorhamnetol 5-O-[6″-(3-hydroxy-3-methyl glutarate)] β-D-glucoside]: the “TEAC (Trolox equivalent antioxidant capacity) ± SEM” value in assay [1] is on record as 0.88 ± 0.21.

As to `O=c1c(O)c(-c2ccc(O)c(O)c2)oc2cc(O)cc(O)c12` [Quercetin, reference compound], the “TEAC (Trolox equivalent antioxidant capacity) ± SEM” value in assay [1] is listed as 1.07 ± 0.23; in assay [1] (listed as quercetin), 1.07±0.23.

As for `O=Cc1ccc(CO)o1` [compound 8, 5-hydroxymethylfurfural], the “TEAC (Trolox equivalent antioxidant capacity) ± SEM” value in assay [1] stood at 1.05±0.24.

`COC(=O)CC(O)(CC(=O)OC)C(=O)OC` [compound 11, trimethyl citrate]: in assay [1], the “antioxidant activity (in words)” value is “moderate to low antioxidant activity” and the “TEAC (Trolox equivalent antioxidant capacity) ± SEM” value was 0.58±0.12.

Take `O=C1O[C@H]([C@@H](O)CO)C(O)=C1O` [Ascorbic acid, reference compound]: the “TEAC (Trolox equivalent antioxidant capacity) ± SEM” value in assay [1] came to 1.14 ± 0.29.
